Our source for the IC50 values is patent publication EP4775580A1, “COMPOUND, PHARMACEUTICAL COMPOSITION COMPRISING SAME, AND USE THEREOF” (Euregen Biopharma Co., Ltd., priority 2023, dated 2025).

The test system of one assay is Molm-13 cells. As to the kind of experiment: Antiproliferative activity, CellTiter-Glo, 7 days (Test Example 2), Molm-13. The format is cell-based. The settings on record: Homo sapiens, 168 h, 7 days incubation, read-out: MOLM13 IC50. From the text:
(§1) [0134] 1. Experimental Principle: MV-4-11, Molm-13, and OCI-AML-3 cells are human hematologic tumor cell lines harboring the Menin-MLL fusion. HL-60 is a wild-type human hematologic tumor cell line without Menin-MLL fusion. […] 2. Experimental Materials: MV-4-11, Molm-13, OCI-AML-3, and HL-60 cells were all purchased from Cobioer; CellTiter-Glo® was purchased from Promega (Cat. #G7571); RPMI-1640 was purchased from Viva Cell (Cat. #C3010-0500); IMDM was purchased from Viva Cell (Cat. #C3040-0500); fetal bovine serum (FBS) was purchased from Biosera (Cat. #FB-1058/500); penicillin-streptomycin was purchased from BasalMedia (Cat. #S110JV); 0.25% Trypsin-EDTA was purchased from BasalMedia (Cat. #S310KJ); dimethyl sulfoxide (DMSO) was purchased from Sinopharm (Cat. #30072418); 96-well plates were purchased from Corning (Cat. #3610); incubator was obtained from PHCbi (Model: MCO-18AC); inverted microscope was obtained from Mingmei (Cat. #MI52-0); automated cell counter was obtained from BodBoge (Model: JSY-SC-031N); microplate reader was obtained from PerkinElmer (Model: Envision); data processing software: GraphPad Prism 8.0. 3. […] After incubation at room temperature for 10 minutes, luminescence values were read using the EnVision microplate reader, and IC50 values were calculated using GraphPad Prism 8.0 software. […]

The subject of another assay is OCI-AML-3 cells. As to the kind of experiment: Antiproliferative activity, CellTiter-Glo, 7 days (Test Example 2), OCI-AML-3. The format is cell-based. To be noted: Homo sapiens, 168 h, 7 days incubation, read-out: OCI-AML3 IC50.
Source text: as §1
For orientation: In ATP-based viability assays light output follows the ATP content of the culture.

The IC50 is the midpoint of a concentration-inhibition curve. Regarding `CCN(C(=O)c1cc(F)ccc1N1CCN([C@@H]2CCN([C@H](CCCN(C)CCOC)C(C)C)C2)c2ncncc21)C(C)C` [Example 3], the 50% inhibitory concentration (IC50) with Molm-13 cells turned out to be 26.7 nM; with OCI-AML-3 cells, 103 nM.
